The values that follow come from patent US20260042755A1, “GPR6 INVERSE AGONISTS” (MapLight Therapeutics, Inc., priority 2022, published 2026).

Assay [1] has as its target T1, GPR6 (Homo sapiens, UniProt P46095).
T1 construct: expressed in transfected cells; host or cells: CHO cells
Description: GPR6 antagonist functional cAMP assay (LANCE Ultra cAMP TR-FRET, CHO cells stably expressing GPR6). It counts as cell-based. The method, boiled down: (§1)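 Stable CHO-GPR6 or CHO-GPR3 cells (10,000/well) in Krebs-Ringer buffer with 0.1% BSA and 150 μM Ro 20-1724 were exposed to compounds for 45 min at 37° C (0.1% DMSO). cAMP read by LANCE Ultra TR-FRET; IC50 from 4-parameter fit normalized to DMSO and reference compounds.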
In general terms: Cyclic AMP is a second messenger, typically raised through Gs and lowered through Gi signalling.

Assay [2] has as its target T2, GPR3 (Homo sapiens, UniProt P46089).
T2 construct: expressed in transfected cells; host or cells: CHO cells
Description: GPR3 antagonist functional cAMP assay (LANCE Ultra cAMP TR-FRET, CHO cells stably expressing GPR3). It counts as cell-based. The method, boiled down:
as §1

Setting [3] is: CHO cells stably expressing GPR6, cAMP assay (Example 24).
[4] abbreviates: CHO cells stably expressing GPR3, cAMP assay (Example 24).
Setting [5] is: CHO cells stably expressing GPR6, cAMP assay.
Where [6] appears, read: CHO cells stably expressing GPR3, cAMP assay.
[7] abbreviates: procedure as described in Example 24.

T2 sequence (P46089 whole entry, species assumed): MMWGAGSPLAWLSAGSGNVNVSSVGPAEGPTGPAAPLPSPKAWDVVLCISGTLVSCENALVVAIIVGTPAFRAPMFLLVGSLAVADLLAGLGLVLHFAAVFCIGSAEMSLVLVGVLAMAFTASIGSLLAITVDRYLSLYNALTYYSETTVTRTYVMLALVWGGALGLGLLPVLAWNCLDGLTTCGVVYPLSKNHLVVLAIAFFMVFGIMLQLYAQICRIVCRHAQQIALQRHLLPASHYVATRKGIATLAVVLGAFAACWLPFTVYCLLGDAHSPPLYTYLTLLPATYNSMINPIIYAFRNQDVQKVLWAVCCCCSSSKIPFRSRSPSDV
T1 sequence (P46095 whole entry): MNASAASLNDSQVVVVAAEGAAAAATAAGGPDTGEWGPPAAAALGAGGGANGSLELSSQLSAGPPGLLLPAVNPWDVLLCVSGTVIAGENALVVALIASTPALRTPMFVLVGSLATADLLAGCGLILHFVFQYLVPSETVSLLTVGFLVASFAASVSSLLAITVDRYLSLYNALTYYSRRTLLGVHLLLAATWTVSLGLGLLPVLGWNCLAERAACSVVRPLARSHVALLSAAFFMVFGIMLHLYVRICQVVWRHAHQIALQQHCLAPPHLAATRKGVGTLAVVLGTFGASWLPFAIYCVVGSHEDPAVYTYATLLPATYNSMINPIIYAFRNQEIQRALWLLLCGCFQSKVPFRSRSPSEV

For the compound `CC(=O)N1CCc2nc(N3CCC(C(=O)N4CCOCC4)C3)c(-c3cnn(C)c3)nc2C1` (stereo not drawn) [Compound 389, 1-[3-(1-methyl-1H-pyrazol-4-yl)-2-[3-(morpholine-4-carbonyl)pyrrolidin-1-yl]-5H,6H,7H,8H-pyrido[3,4-b]pyrazin-6-yl]ethan-1-one], the values for the IC50 in assay [1] (setting [3]) and in assay [2] (setting [4]) were at least 30 µM and 1 to 30 µM, respectively.
In the case of `CC(C)(O)[C@@H](O)c1cc2nc(-c3cnn(CF)c3)c(N3CCN(Cc4ccccc4F)CC3)nc2cn1` (single isomer, unassigned) [Compound 713], the IC50 (commonly the concentration that gives 50% inhibition) in assay [1] (procedure of Example 24) is 0.1 to 1 µM; in assay [2] (procedure of Example 24) it was 1 to 30 µM.
Taken in the same sequence, the figures for `CC(C)(O)[C@H](O)c1cc2nc(N3CCC(=Cc4ccc(F)cc4F)CC3)c(-c3cnn(C4CC4)c3)nc2cn1` (single isomer, unassigned) [Compound 770] were 0.1 to 1 µM and 1 to 30 µM.
For the compound `Cn1cc(-c2nc3cnccc3nc2N2CCN(CC3CCCOC3)CC2)cn1` (stereo not drawn) [Compound 241, 1-[3-(1-methyl-1H-pyrazol-4-yl)pyrido[3,4-b]pyrazin-2-yl]-4-[(oxan-3-yl)methyl]piperazine], the IC50 in assay [1] (setting [3]) and in assay [2] (setting [4]) was at least 30 µM each time.
Consider `CCn1cc(-c2nc3c(nc2N2CCC(Oc4ccc(F)cc4F)CC2)CCN(C[C@H](O)CO)C3)cn1` [Compound 305, (2S)-3-{2-[4-(2,4-difluorophenoxy)piperidin-1-yl]-3-(1-ethyl-1H-pyrazol-4-yl)-5H,6H,7H,8H-pyrido[3,4-b]pyrazin-6-yl}propane-1,2-diol], for which the IC50 lay within 0.1 to 1 µM in assay [1] (procedure of Example 24) and 1 to 30 µM in assay [2] (procedure of Example 24).
In the case of `CC(C)(O)Cc1cc2nc(N3CCC(Oc4ccc(F)cc4F)CC3)c(-c3cnn(C4CC4)c3)nc2cn1` [Compound 705, 1-{3-(1-cyclopropyl-4-pyrazolyl)-2-[4-(2,4-difluorophenoxy)-1-piperidyl]-1,4,6-triaza-7-naphthyl}-2-methyl-2-propanol], the values for the IC50 in assay [1] (procedure of Example 24) and in assay [2] (procedure of Example 24) were 0.1 to 1 µM and 1 to 30 µM, respectively.
For the compound `CC(=O)N1CCc2nc(N3CCN(Cc4ccccc4F)CC3)c(-c3cnn(C)c3)nc2C1` [Compound 252, 1-(2-{4-[(2-fluorophenyl)methyl]piperazin-1-yl}-3-(1-methyl-1H-pyrazol-4-yl)-5H,6H,7H,8H-pyrido[3,4-b]pyrazin-6-yl)ethan-1-one], the figures for the IC50 in assay [1] (setting [3]) and in assay [2] (setting [4]) were 0.1 to 1 µM and 1 to 30 µM, respectively.
For `CC(=O)N1CCc2nc(N3CCN(Cc4cc(F)ccc4F)CC3)c(-c3ccc(F)c(N)n3)nc2C1` [Compound 581, 1-[3-(6-amino-5-fluoro-2-pyridyl)-2-{4-[(2,5-difluorophenyl)methyl]-1-piperazinyl}-5,6,7,8-tetrahydro-1,4,6-triaza-6-naphthyl]-1-ethanone], the figures for the IC50 in assay [1] (setting [5]) and in assay [2] (setting [6]) were under 0.1 µM and 1 to 30 µM, respectively.
As to `COc1ccc(C(=O)N2CCN(c3nc4c(nc3-c3cnn(C)c3)CN(C(C)=O)CC4)CC2)nc1` [Compound 284, 1-{2-[4-(5-methoxypyridine-2-carbonyl)piperazin-1-yl]-3-(1-methyl-1H-pyrazol-4-yl)-5H,6H,7H,8H-pyrido[3,4-b]pyrazin-6-yl}ethan-1-one], the IC50 in assay [1] (procedure of Example 24) and in assay [2] (procedure of Example 24) was 1 to 30 µM each time.
For `CC(=O)N1CCc2nc(N3CCC(COc4ccc(F)cc4)C3)c(-c3cnn(C)c3)nc2C1` (stereo not drawn) [Compound 325, 1-(2-{3-[(4-fluorophenoxy)methyl]pyrrolidin-1-yl}-3-(1-methyl-1H-pyrazol-4-yl)-5H,6H,7H,8H-pyrido[3,4-b]pyrazin-6-yl)ethan-1-one], the IC50 in assay [1] (procedure of Example 24) and in assay [2] (procedure of Example 24) was 1 to 30 µM each time.
In the case of `CCOc1cncc(-c2nc3c(nc2N2CCC(Oc4ccc(F)cc4F)CC2)CCN(C(C)=O)C3)n1` [Compound 233, 1-{2-[4-(2,4-difluorophenoxy)piperidin-1-yl]-3-(6-ethoxypyrazin-2-yl)-5H,6H,7H,8H-pyrido[3,4-b]pyrazin-6-yl}ethan-1-one], the half-inhibitory concentration (IC50) in assay [1] (setting [3]) and in assay [2] (setting [4]) was 1 to 30 µM throughout.
Take `CC(C)(O)[C@H](O)c1cc2nc(N3CCC(Cc4ccc(F)cc4F)CC3)c(-c3cnn(CF)c3)nc2cn1` (single isomer, unassigned) [Compound 728]: the results for the IC50 in assay [1] (procedure of Example 24) and in assay [2] (procedure of Example 24) were under 0.1 µM and 0.1 to 1 µM, respectively.
For `CC(=O)N1CCc2nc(N3CCC(C(F)(F)c4ccc(F)cc4F)CC3)c(-c3cnn(C)c3)nc2C1` [Compound 698, 1-(2-(4-((2,4-difluorophenyl)difluoromethyl)piperidin-1-yl)-3-(1-methyl-1H-pyrazol-4-yl)-7,8-dihydropyrido[3,4-b]pyrazin-6(5H)-yl)ethan-1-one], the results for the IC50 in assay [1] (procedure of Example 24) and in assay [2] (procedure of Example 24) were 0.1 to 1 µM and 1 to 30 µM, respectively.
Turning to `CC(=O)N1CCc2nc(N3CCC(Oc4ccc(F)cc4F)CC3)c(-c3cncnc3)nc2C1` [Compound 34, 1-{2-[4-(2,4-difluorophenoxy)piperidin-1-yl]-3-(pyrimidin-5-yl)-5H,6H,7H,8H-pyrido [3,4-b]pyrazin-6-yl}ethan-1-one], the IC50 in assay [1] (setting [7]) and in assay [2] (setting [7]) was 1 to 30 µM throughout.
In the case of `Cn1cc(-c2nc3cnccc3nc2N2CC[C@H](Oc3ccc(F)cc3F)[C@H](F)C2)cn1` (single isomer, unassigned) [Compound 332], the IC50 in assay [1] (procedure of Example 24) and in assay [2] (procedure of Example 24) was 1 to 30 µM throughout.
With `CCn1cc(-c2nc3c(nc2N2CCC(Oc4cc(Cl)ccc4Cl)CC2)CCN(C(=O)CO)C3)cn1` [Compound 403, 1-{2-[4-(2,5-dichlorophenoxy)piperidin-1-yl]-3-(1-ethyl-1H-pyrazol-4-yl)-5H,6H,7H,8H-pyrido[3,4-b]pyrazin-6-yl}-2-hydroxyethan-1-one], the values for the IC50 in assay [1] (setting [3]) and in assay [2] (setting [4]) were 0.1 to 1 µM and 1 to 30 µM, respectively.
Taken in the same sequence, the figures for `CC(=O)N1CCc2nc(N3CCC(Oc4cc(Cl)ccc4F)CC3)c(-c3cnn(C)c3)nc2C1` [Compound 457, 1-{2-[4-(5-chloro-2-fluorophenoxy)piperidin-1-yl]-3-(1-methyl-1H-pyrazol-4-yl)-5H,6H,7H,8H-pyrido[3,4-b]pyrazin-6-yl}ethan-1-one] were 0.1 to 1 µM and 1 to 30 µM.
On to `CC(=O)N1CCc2nc(N3CCN(C(CO)(CO)c4cc(F)ccc4F)CC3)c(-c3cnn(C)c3)nc2C1` [Compound 551, 1-(2-{4-[1-(2,5-difluorophenyl)-2-hydroxy-1-(hydroxymethyl)ethyl]-1-piperazinyl}-3-(1-methyl-4-pyrazolyl)-5,6,7,8-tetrahydro-1,4,6-triaza-6-naphthyl)-1-ethanone], for which the values for the IC50 in assay [1] (setting [5]) and in assay [2] (setting [6]) were 0.1 to 1 µM and at least 30 µM, respectively.
Taken in the same sequence, the figures for `CC(=O)N1CCc2nc(N3CCN(Cc4c[nH]cn4)CC3)c(-c3cnn(C)c3)nc2C1` [Compound 548, 1-(2-{4-[(4-imidazolyl)methyl]-1-piperazinyl}-3-(1-methyl-4-pyrazolyl)-5,6,7,8-tetrahydro-1,4,6-triaza-6-naphthyl)-1-ethanone] were at least 30 µM and at least 30 µM.
In the case of `CC(=O)N1CCc2nc(N3CCC(=C(C)c4ccc(F)cc4F)CC3)c(-c3cnn(C)c3)nc2C1` [Compound 718, 1-(2-{4-[1-(2,4-difluorophenyl)ethylidene]-1-piperidyl}-3-(1-methyl-4-pyrazolyl)-5,6,7,8-tetrahydro-1,4,6-triaza-6-naphthyl)-1-ethanone], the 50% inhibitory concentration (IC50) in assay [1] (procedure of Example 24) and in assay [2] (procedure of Example 24) was 1 to 30 µM throughout.
As to `O=S(=O)(C1COC1)N1CCc2nc(N3CCC(Oc4ccc(F)cc4F)CC3)c(-c3cnn(C4CCCCO4)c3)nc2C1` (stereo not drawn) [Compound 151, 4-(2,4-difluorophenoxy)-1-{3-[1-(oxan-2-yl)-1H-pyrazol-4-yl]-6-(oxetane-3-sulfonyl)-5H,6H,7H,8H-pyrido[3,4-b]pyrazin-2-yl}piperidine], the IC50 in assay [1] (setting [3]) and in assay [2] (setting [4]) was 1 to 30 µM throughout.
Take `Cn1cc(-c2nc3cc([C@@](C)(O)C(C)(C)O)ncc3nc2N2CCC(Oc3ccc(F)cc3F)CC2)cn1` (single isomer, unassigned) [Compound 739]: the IC50 is 0.1 to 1 µM in assay [1] (procedure of Example 24) and 1 to 30 µM in assay [2] (procedure of Example 24).
Take `COc1ccc(CNc2nc(-c3nc4c(nc3N3CCC(Cc5cc(F)ccc5F)CC3)CCN(C(C)=O)C4)ccc2F)cc1` [Compound 701, 1-(2-{4-[(2,5-difluorophenyl)methyl]-1-piperidyl}-3-(5-fluoro-6-{ [(p-methoxyphenyl)methyl]amino}-2-pyridyl)-5,6,7,8-tetrahydro-1,4,6-triaza-6-naphthyl)-1-ethanone]: the IC50 in assay [1] (procedure of Example 24) and in assay [2] (procedure of Example 24) was 1 to 30 µM each time.
In the case of `CC(=O)N1CCc2nc(N3CCC(Oc4ccc(F)cc4F)CC3)c(-c3cnn(C(C)C)c3)nc2C1` [Compound 165, 1-{2-[4-(2,4-difluorophenoxy)piperidin-1-yl]-3-[1-(propan-2-yl)-1H-pyrazol-4-yl]-5H,6H,7H,8H-pyrido[3,4-b]pyrazin-6-yl}ethan-1-one], the figures for the IC50 in assay [1] (setting [3]) and in assay [2] (setting [4]) were under 0.1 µM and 1 to 30 µM, respectively.
Taken in the same sequence, the figures for `Fc1ccc(OC2CCN(c3nc4c(nc3-c3cn[nH]c3)CN(C3COC3)CC4)CC2)c(F)c1` [Compound 199, 4-(2,4-difluorophenoxy)-1-[6-(oxetan-3-yl)-3-(1H-pyrazol-4-yl)-5H,6H,7H,8H-pyrido[3,4-b]pyrazin-2-yl]piperidine] were 0.1 to 1 µM and 1 to 30 µM.
Taken in the same sequence, the figures for `CC(=O)N1CCc2nc(N3CCC(Oc4ccc(F)cc4F)CC3)c(-c3cnn(CC4CC4)c3)nc2C1` [Compound 209, 1-{3-[1-(cyclopropylmethyl)-1H-pyrazol-4-yl]-2-[4-(2,4-difluorophenoxy)piperidin-1-yl]-5H,6H,7H,8H-pyrido[3,4-b]pyrazin-6-yl}ethan-1-one] were 0.1 to 1 µM and 1 to 30 µM.
`COc1ccc(OC2CCN(c3nc4cnncc4nc3-c3cnn(C)c3)CC2)c(F)c1` [Compound 417, 4-(2-fluoro-4-methoxyphenoxy)-1-[3-(1-methyl-1H-pyrazol-4-yl)pyrazino[2,3-d]pyridazin-2-yl]piperidine]: the figures for the IC50 in assay [1] (setting [3]) and in assay [2] (setting [4]) were 0.1 to 1 µM and 1 to 30 µM, respectively.
